These results are taken from US20260070945A1, “MACROCYCLIC IMMUNOMODULATORS” (Bristol-Myers Squibb Company, priority 2022, published 2026).

Where a SMILES comes first, the peptide text is derived from it. Bridges are numbered along the chain shown (N, C = ends). [ ]: non-standard residue; d: D form. The star is where a group is joined. ξ: configuration not given here. Trp(1-CH2COOH) = N[C@@H](Cc1cn(CC(=O)O)c2ccccc12)C(=O)O; Phe(3-CF3) = N[C@@H](Cc1cccc(C(F)(F)F)c1)C(=O)O; Phe(4-COOH) = N[C@@H](Cc1ccc(C(=O)O)cc1)C(=O)O; Bip = N[C@@H](Cc1ccc(-c2ccccc2)cc1)C(=O)O; Phe(4-CN) = N#Cc1ccc(C[C@H](N)C(=O)O)cc1; Phe(3-Me) = Cc1cccc(C[C@H](N)C(=O)O)c1; Val(3-OH) = CC(C)(O)[C@H](N)C(=O)O; Cha = N[C@@H](CC1CCCCC1)C(=O)O; Ile(3ξ) = CCC(C)[C@H](N)C(=O)O; Thr(3ξ) = CC(O)[C@H](N)C(=O)O; ξY = NC(Cc1ccc(O)cc1)C(=O)O; Carboxymethyl = O=C(O)C*; NMeA = CN[C@@H](C)C(=O)O; Orn = NCCC[C@H](N)C(=O)O; Aun = NCCCCCCCCCCC(=O)O; Dab = NCC[C@H](N)C(=O)O; Abu = CC[C@H](N)C(=O)O; Dap = NC[C@H](N)C(=O)O; AEEA = NCCOCCOCC(=O)O

T1 sequence (Q15116 25-288): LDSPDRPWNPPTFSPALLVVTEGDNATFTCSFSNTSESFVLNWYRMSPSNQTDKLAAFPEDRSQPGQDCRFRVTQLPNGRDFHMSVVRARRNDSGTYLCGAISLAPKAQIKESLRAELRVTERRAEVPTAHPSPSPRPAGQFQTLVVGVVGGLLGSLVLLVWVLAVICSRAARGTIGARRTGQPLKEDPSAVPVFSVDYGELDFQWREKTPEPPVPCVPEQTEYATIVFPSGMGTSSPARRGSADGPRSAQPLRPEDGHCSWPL

One test has as its target T1, PD-1/PD-L1 interaction (PE-labeled human PD-L1-Ig binding to Jurkat cell line over-expressing human PD-1) (Homo sapiens, UniProt Q15116).
T1 construct: expressed in transfected cells; host or cells: Jurkat
The experiment in a line: Jurkat-PD-1 Cell Binding High-Content Screening Assay (CBA). The conditions noted are these: Jurkat-hPD-1 cells, PE-labeled PD-L1-Ig 20 nM final; read-out: Jurkat HPD1 PDL1 IC50. Put shortly: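 Compound is added first to the PD-1-expressing Jurkat cells and held 2 h at 37 °C in serum-containing DMEM. The fluorescent PD-L1 fusion follows at 20 nM final for 1 h. Fixed, Hoechst-stained cells are then imaged for bound label.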
What is called IC50 is the concentration at which inhibition is half-maximal. For `CC(C)C[C@H]1NC(=O)[C@H](C)N(C)C(=O)[C@H](C(C)C)NC(=O)[C@H](Cc2ccc(-c3ccccc3)cc2)NC(=O)[C@H](C(C)C)NC(=O)[C@H](Cc2c[nH]c3ccccc23)NC(=O)[C@H](CC(=O)O)NC(=O)[C@H](Cc2ccc(OCC(=O)O)cc2)NC(=O)[C@H](Cc2ccc(OCC(=O)O)cc2)NC(=O)CSC[C@@H](C(=O)NCCOCCOCC(=O)NCCCCCCCCCCC(=O)O)NC(=O)[C@H](CO)NC(=O)[C@H](C(C)C)NC(=O)[C@H](CC2CCCCC2)NC(=O)[C@H](CCN)NC1=O` [Example 2453] ({CH2CO}-Y(Carboxymethyl)Y(Carboxymethyl)DWV[Bip]V[NMeA][dL][Dab][Cha]VSC[AEEA][Aun]-OH; thioether N-14), the concentration for half-maximal inhibition (IC50) amounted to 13.1 nM. For the molecule `Cc1cccc(C[C@@H]2NC(=O)[C@H](CC(=O)O)NC(=O)[C@H](Cc3ccc(OCC(=O)O)cc3)NC(=O)[C@H](Cc3ccc(C#N)cc3)NC(=O)CSC[C@@H](C(=O)N[C@@H](CCN)C(=O)NCCCCCCCCCCC(=O)O)NC(=O)[C@H](CO)NC(=O)[C@H](C(C)(C)O)NC(=O)[C@H](CC3CCCCC3)NC(=O)[C@H](CCN)NC(=O)[C@@H](CC(C)C)NC(=O)[C@H](C)N(C)C(=O)[C@H](Cc3ccc(OCC(=O)O)cc3)NC(=O)[C@H](Cc3ccc(-c4ccccc4)cc3)NC(=O)[C@H](Cc3ccc(OCC(=O)O)cc3)NC2=O)c1` [Example 1288] ({CH2CO}-[Phe(4-CN)]Y(Carboxymethyl)D[Phe(3-Me)]Y(Carboxymethyl)[Bip]Y(Carboxymethyl)[NMeA][dL][Dab][Cha][Val(3-OH)]SC[Dab][Aun]-OH; thioether N-14), the IC50 amounted to 14.7 nM. With `Cc1cccc(C[C@@H]2NC(=O)[C@H](CC(=O)O)NC(=O)[C@H](Cc3ccc(OCC(=O)O)cc3)NC(=O)[C@H](C(C)O)NC(=O)CSC[C@@H](C(=O)N[C@@H](CCN)C(=O)NCCCCCCCCCCC(=O)O)NC(=O)[C@H](C(C)O)NC(=O)[C@H](C(C)C)NC(=O)[C@H](CC3CCCCC3)NC(=O)[C@H](CCN)NC(=O)[C@@H](CC(C)C)NC(=O)[C@H](C)N(C)C(=O)[C@H](Cc3ccc(OCC(=O)O)cc3)NC(=O)[C@H](Cc3ccc(-c4ccccc4)cc3)NC(=O)[C@H](Cc3ccc(C(=O)O)cc3)NC2=O)c1` (stereo partly drawn) [Example 2347] ({CH2CO}-[Thr(3ξ)]Y(Carboxymethyl)D[Phe(3-Me)][Phe(4-COOH)][Bip]Y(Carboxymethyl)[NMeA][dL][Dab][Cha]V[Thr(3ξ)]C[Dab][Aun]-OH; thioether N-14), the half-maximal inhibitory concentration (IC50) stood at 9.3 nM. With `CC(C)C[C@H]1NC(=O)[C@H](C)N(C)C(=O)[C@H](Cc2ccc(OCC(=O)O)cc2)NC(=O)[C@H](Cc2ccc(-c3ccccc3)cc2)NC(=O)[C@H](Cc2ccc(OCC(=O)O)cc2)NC(=O)[C@H](Cc2cccc(C(F)(F)F)c2)NC(=O)[C@H](CC(=O)O)NC(=O)[C@H](Cc2ccc(OCC(=O)O)cc2)NC(=O)[C@H]([C@@H](C)O)NC(=O)CSC[C@@H](C(=O)N[C@@H](CCN)C(=O)NCCOCCOCC(=O)NCCCCCCCCCCC(=O)O)NC(=O)[C@H](CCC(=O)O)NC(=O)[C@H](C(C)C)NC(=O)[C@H](CC2CCCCC2)NC(=O)[C@H](CCN)NC1=O` [Example 1228] ({CH2CO}-TY(Carboxymethyl)D[Phe(3-CF3)]Y(Carboxymethyl)[Bip]Y(Carboxymethyl)[NMeA][dL][Dab][Cha]VEC[Dab][AEEA][Aun]-OH; thioether N-14), the half-inhibitory concentration (IC50) is 16.9 nM. Same read-out and setting: then `CC[C@@H]1NC(=O)[C@H](Cc2cccc(C)c2)NC(=O)[C@H](CC(=O)O)NC(=O)[C@H](Cc2ccc(OCC(=O)O)cc2)NC(=O)[C@H](CCN)NC(=O)CSC[C@@H](C(=O)N[C@@H](CCN)C(=O)NCCCCCCCCCCC(=O)O)NC(=O)[C@H](CO)NC(=O)[C@H](C(C)(C)O)NC(=O)[C@H](CC2CCCCC2)NC(=O)[C@H](CCN)NC(=O)[C@@H](CC(C)C)NC(=O)[C@H](C)N(C)C(=O)[C@H](Cc2ccc(OCC(=O)O)cc2)NC(=O)[C@H](Cc2ccc(-c3ccccc3)cc2)NC1=O` [Example 1308] ({CH2CO}-[Dab]Y(Carboxymethyl)D[Phe(3-Me)][Abu][Bip]Y(Carboxymethyl)[NMeA][dL][Dab][Cha][Val(3-OH)]SC[Dab][Aun]-OH; thioether N-14), with 7 nM; and `Cc1cccc(C[C@@H]2NC(=O)[C@H](CC(=O)O)NC(=O)[C@H](Cc3cn(CC(=O)O)c4ccccc34)NC(=O)[C@H](CCN)NC(=O)CSC[C@@H](C(=O)N[C@@H](CCN)C(=O)NCCCCCCCCCCC(=O)O)NC(=O)[C@H]([C@@H](C)O)NC(=O)[C@H](C(C)C)NC(=O)[C@H](CC3CCCCC3)NC(=O)[C@H](CCN)NC(=O)[C@@H](CC(C)C)NC(=O)[C@H](C)N(C)C(=O)[C@H](Cc3ccc(OCC(=O)O)cc3)NC(=O)[C@H](Cc3ccc(-c4ccccc4)cc3)NC(=O)C(Cc3ccc(OCC(=O)O)cc3)NC2=O)c1` (stereo partly drawn) [Example 1133] ({CH2CO}-[Dab][Trp(1-CH2COOH)]D[Phe(3-Me)][ξY](Carboxymethyl)[Bip]Y(Carboxymethyl)[NMeA][dL][Dab][Cha]VTC[Dab][Aun]-OH; thioether N-14), with 29.3 nM; and `CCC(C)[C@@H]1NC(=O)[C@H](Cc2ccc(-c3ccccc3)cc2)NC(=O)[C@H](CC(C)C)NC(=O)[C@H](Cc2cccc(C)c2)NC(=O)[C@H](CC(=O)O)NC(=O)[C@H](Cc2ccc(O)cc2)NC(=O)[C@H](Cc2ccccc2)NC(=O)CSC[C@@H](C(=O)N[C@@H](CN)C(=O)NCCCCCCCCCCC(=O)O)NC(=O)[C@H](CCCN)NC(=O)[C@H](C(C)C)NC(=O)[C@H](CC(C)C)NC(=O)[C@H](CCN)NC(=O)[C@@H](C)NC(=O)[C@H](C)N(C)C1=O` (stereo partly drawn) [Example 2199] ({CH2CO}-FYD[Phe(3-Me)]L[Bip][Ile(3ξ)][NMeA][dA][Dab]LV[Orn]C[Dap][Aun]-OH; thioether N-14), with 132 nM. Still for that read-out and setting: then `Cc1cccc(C[C@@H]2NC(=O)[C@H](CC(=O)O)NC(=O)[C@H](Cc3ccc(OCC(=O)O)cc3)NC(=O)[C@H](CN)NC(=O)CSC[C@@H](C(=O)N[C@@H](CCN)C(=O)NCCCCCCCCCCC(=O)O)NC(=O)[C@H]([C@@H](C)O)NC(=O)[C@H](C(C)C)NC(=O)[C@H](CC3CCCCC3)NC(=O)[C@H](CCN)NC(=O)[C@@H](CC(C)C)NC(=O)[C@H](C)N(C)C(=O)[C@H](Cc3ccc(O)cc3)NC(=O)[C@H](Cc3ccc(-c4ccccc4)cc3)NC(=O)[C@H](Cc3ccc(OCC(=O)O)cc3)NC2=O)c1` [Example 1258] ({CH2CO}-[Dap]Y(Carboxymethyl)D[Phe(3-Me)]Y(Carboxymethyl)[Bip]Y[NMeA][dL][Dab][Cha]VTC[Dab][Aun]-OH; thioether N-14), with 19 nM.

Still in this test, the particulars now being: PE-labeled PD-L1-Ig 20 nM final, Jurkat-hPD-1 cells; read-out: Jurkat HPD1 PDL1 IC50.
In the case of `CC(C)C[C@H]1NC(=O)[C@H](C)N(C)C(=O)[C@H](Cc2ccc(OCC(=O)O)cc2)NC(=O)[C@H](Cc2ccc(-c3ccccc3)cc2)NC(=O)[C@H](Cc2ccc(C(=O)O)cc2)NC(=O)[C@H](Cc2cccc(C(F)(F)F)c2)NC(=O)[C@H](CC(=O)O)NC(=O)[C@H](Cc2ccc(OCC(=O)O)cc2)NC(=O)[C@H](Cc2cnc[nH]2)NC(=O)CSC[C@@H](C(=O)N[C@@H](CCN)C(=O)NCCCCCCCCCCC(=O)O)NC(=O)[C@H](CCC(=O)O)NC(=O)[C@H](C(C)C)NC(=O)[C@H](CC2CCCCC2)NC(=O)[C@H](CCN)NC1=O` [Example 2581] ({CH2CO}-HY(Carboxymethyl)D[Phe(3-CF3)][Phe(4-COOH)][Bip]Y(Carboxymethyl)[NMeA][dL][Dab][Cha]VEC[Dab][Aun]-OH; thioether N-14), the half-maximal inhibitory concentration (IC50) is 9.2 nM.
